Test results from PubChem BioAssay (NCI).
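Method: 48-hour compound exposure of cells in 96-well plates, five concentrations, linear interpolation of endpoints. Definition used: TGI = concentration required for complete inhibition of growth.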

What was measured:
Assay in all cases: inhibition of tumour cell growth, NCI panel, 48 h
UO-31 renal = test system: UO-31 renal
HS 578T breast = test system: HS 578T breast
SK-MEL-2 melanoma = test system: SK-MEL-2 melanoma
SN12C renal = test system: SN12C renal
OVCAR-8 ovarian = test system: OVCAR-8 ovarian
HOP-92 NSCLC = test system: HOP-92 NSCLC
CAKI-1 renal = test system: CAKI-1 renal
OVCAR-3 ovarian = test system: OVCAR-3 ovarian
K-562 leukemia = test system: K-562 leukemia
MDA-MB-231 breast = test system: MDA-MB-231 breast
RXF 393 renal = test system: RXF 393 renal

Row | SMILES | TGI (UO-31 renal) [µM] | TGI (HS 578T breast) [µM] | TGI (SK-MEL-2 melanoma) [µM] | TGI (SN12C renal) [µM] | TGI (OVCAR-8 ovarian) [µM] | TGI (HOP-92 NSCLC) [µM] | TGI (CAKI-1 renal) [µM] | TGI (OVCAR-3 ovarian) [µM] | TGI (K-562 leukemia) [µM] | TGI (MDA-MB-231 breast) [µM] | TGI (RXF 393 renal) [µM]
1 | CC(C)=CCC[C@@H](C)C1=C(O)C(Nc2ccccc2)=C(C)C(=O)C1=O | 46.4 | > 100 | > 89.9 | > 100 | > 100 | > 78.3 | 56.8 | > 52.2 | > 80.9 | > 100 | 60.7
2 | CC1CN=C(c2ccc(CN3CCC(CCCC4CCN(Cc5ccc(C6=NCC(C)N6)cc5)CC4)CC3)cc2)N1 (configuration not stated) | > 100 | > 100 | 52.3 | > 100 | > 100 | > 100 | > 100 | > 100 | > 100 | 59.7 | > 100
3 | COc1cccc(N(CN2C(=O)CCC2OC)C(C)=O)c1 (configuration not stated) | > 100 | > 100 | > 100 | > 100 | > 100 | > 100 | > 100 | > 100 | > 100 | > 100 | > 100
4 | CCOC(=O)CCC(NC(=O)c1ccc(Nc2nc3ccccc3nc2C(=O)OCC)s1)C(=O)OCC (configuration not stated) | > 100 | > 100 | > 100 | > 100 | > 100 | > 100 | > 100 | > 100 | > 100 | > 100 | > 100
5 | CC1=NN(c2nc(N)nc(-c3cc4ccccc4oc3=N)n2)C(C)(C)C1 | 37.4 | 48.1 | 41.8 | 43 | 53 | 42.7 | 31.1 | 31.6 | 53.1 | 43.4 | 43.5
6 | CCOC(=O)C1=C(C)N(Cc2ccccc2)C2(O)C(OC)CC(=O)C3C(=O)N(c4ccccc4)C(=O)C132 (configuration not stated) | 33 | > 100 | 59.1 | 41.5 | 31.9 | 44.5 | 64.8 | > 100 | > 100 | 77.2 | 94.1
7 | COC(=O)C(CNC(=O)/C=C/c1ccc(OC(C)=O)c(OC(C)=O)c1)NC(=O)/C=C/c1ccc(OC(C)=O)c(OC(C)=O)c1 (configuration not stated) | > 100 | > 100 | > 100 | > 100 | > 100 | > 100 | > 100 | > 100 | > 100 | > 100 | > 100
8 | O=C1c2cc3ncsc3cc2C(=O)c2c(O)ccc(O)c21 | > 100 | > 100 | > 100 | > 100 | > 100 | > 100 | > 100 | > 100 | > 100 | > 100 | > 100
9 | COC(=O)/C=C\C(C#N)(C#N)N=Cc1ccc(Br)cc1 | 15.8 | 49.7 | 44 | 17.8 | 21.5 | 6.34 | 5.47 | 24.9 | > 100 | 8.48 | 17.8
10 | O=c1onc(Nc2ccccc2)n1-c1ccccc1 | > 100 | > 100 | > 100 | > 100 | > 100 | > 100 | > 100 | > 100 | > 100 | > 100 | > 100
11 | Cc1nccn1S(=O)(=O)c1ccc(Cl)cc1 | > 100 | > 100 | > 100 | > 100 | > 100 | 64.3 | > 100 | > 100 | > 100 | 78.9 | > 100
12 | C=C1CC(O)C2C(=C)C(=O)OC2C2C(C)C(=O)CC12 (configuration not stated) | 28 | 63.2 | 38.2 | 29.9 | 50.9 | 33.8 | 16.6 | 24 | 28.7 | 35.4 | 17.4
